The source of these data is patent publication US8455666B1, “Vegetable oil esterified lipoic acid” (The United States of America, as represented by the …, priority 2011, dated 2013).

The nature of test [1]: Lipid peroxidation inhibition capacity assay (AAPH initiator, C11-Bodipy reporter). In kind it is biochemical. The settings on record: for antioxidant capacity compared with Trolox at the same concentration / oxidation protection of DOPC vesicles (C11-Bodipy fluorescence): in words; for oxidation protection of DOPC vesicles (C11-Bodipy fluorescence): AAPH. The procedure: Lipid Oxidation Inhibition. Lipid oxidation inhibition by LDOG was measured by the lipid peroxidation inhibition capacity assay, which employs AAPH as a free-radical initiator and the lipidic reporter molecule C11-Bodipy (Zhang et al., Lipid peroxidation inhibition capacity assay for antioxidants based on liposomal membranes. Mol. Nutr. Food Res. 2006, 50:714-724). C11-Bodipy fluoresces at 595 nm until it is oxidized, at which point its fluorescence shifts to ˜520 nm (Drummen et al., C11-bodipy581/591, an oxidation-sensitive fluorescent lipid peroxidation probe: (micro)spectroscopic characterization and validation of methodology. Free Radical Biol. Med. 2002, 33:473-490). Conditions for the assay using modified glycerides have been detailed previously (Laszlo et al. 2010. ibid). DOPC and C11-Bodipy were combined in a vial, dried to a film, and then rehydrated in 20 mM Tris-HCl, pH 7.4. When included, ALA, DHLA, LDOG-SS-, or LDOG-SH (at 1- or 5-mol % of total lipids) in ethanol were added prior to formation of vesicles. Unilamellar vesicles were prepared from rehydrated lipids as described above. Samples were diluted to a final concentration of 2.5 mM DOPC (2.4 μM C11-Bodipy) and allowed to equilibrate to 37° C. for 15 min prior to the introduction of AAPH. From the time of AAPH addition (40 mM final concentration), fluorescence intensity (excitation at 540 nm, emission at 595 nm) was measured every minute for 180 min. Experiments were conducted in triplicate at least. The relative fluorescence intensity was calculated by dividing the reading at each minute by the initial fluorescence at the beginning of the experiment (Ft/Fo). Background subtraction was accomplished using the appropriate vesicles without C11-Bodipy.
The water-soluble antioxidant Trolox was used for comparison. Trolox was combined with DOPC and C11-Bodipy, dried, and then rehydrated as described above. A final Trolox concentration range of 10 to 125 μM was employed. The peroxyl radical scavenging capacity of the test antioxidant relative to Trolox (i.e., the relative antioxidation activity) was calculated using the following equation
[formula] where AUCSample is the area under the fluorescence curve (AUC) for vesicles containing antioxidant, AUCTrolox is the area under the curve for vesicles containing 50 μM Trolox (thereby arbitrarily assigned a relative antioxidation activity value of 1.0), AUC0 is the area under the curve for vesicles containing only C11-Bodipy, and molSample is the molar concentration of the antioxidant (Naguib, A fluorometric method for measurement of peroxyl radical scavenging activities of lipophilic antioxidants. Anal. Biochem. 1998, 265:290-298). The AUC was calculated from the average of three different methods, those described by Cao and coworkers (Cao et al., Oxygen-radical absorbance capacity assay for antioxidants. Free Radical Biol. Med. 1993, 14:303-311), Naguib (Naguib, Antioxidant activities of astaxanthin and related carotenoids. J. Agric. Food. Chem. 2000, 48:1150-1154), and Zhang and coworkers (Zhang et al. 2006. ibid).

A short description of test [2]: Vesicle leakage (calcein-cobalt) assay. The settings on record: 37° C. The method, then: Lipid Preparation and Formation of Unilamellar Phospholipid Vesicles. Lipid mixtures and vesicles were prepared as described previously (Laszlo et al. 2010. ibid). Lipids were prepared from appropriate amounts of DOPC in chloroform and LDOG-SS- or LDOG-SH (at 1- or 5-mol % of total lipids) in ethanol added to clean amber vials and then gently mixed. Solvents were removed under a stream of argon and then vacuum. The dried lipids were rehydrated in the appropriate buffer and mixed periodically to form multilamellar phospholipid vesicles. The vesicles were subjected to freeze-thaw cycles and then extrusion to form unilamellar vesicles (approx. 125 nm in diameter). Vesicles were covered with argon, protected from light and stored at 4° C. until used. DOPC vesicles incorporating 1- or 5-mol % ALA or DHLA were similarly produced.
Vesicle Leakage (Calcein-Cobalt). Vesicles with and without LDOG were evaluated for membrane integrity using a leakage assay described previously (Evans. Room-temperature ionic liquid cations act as short-chain surfactants and disintegrate a phospholipid bilayer. Colloid. Surface. A 2006, 274:11-17; and Laszlo et al. 2010. ibid). Briefly, the leakage assay was designed such that the low fluorescent signal of the entrapped calcein-cobalt complex increased as vesicles leaked their contents and cobalt was stripped from calcein by external EDTA. Vesicle leakage was monitored with a fluorometer. Samples were continuously stirred in 1-cm path length quartz cuvettes 37° C., with measurements taken for 30 min at 5-s intervals. Experiments were conducted in triplicate. Leakage percentage (L) was determined from the intensity of the fluorescent signal, 100×(Ft−Fo)/(Fmax−Fo), where Ft was the fluorescent signal over time, Fo was the extrapolated initial signal at time zero, and Fmax was the fluorescent signal at the end of the experiment after rupture by addition of Triton X-100 solution. The apparent rate constant k (ms^−1) and maximum extent of vesicle leakage (L∞), prior to vesicle rupture, were obtained by fitting to the equation: Lt=L∞(1−exp(−kt)).

For test [3] the following is noted: earlier study (Laszlo et al. 2010); cited from earlier work.
Setting [4] is: concentration 25 μM, relative to 50 μM Trolox, DOPC vesicles, 37° C.
The mark [5] stands for this setting: concentration 125 μM, relative to 50 μM Trolox, DOPC vesicles, 37° C.
Where [6] appears, read: antioxidant amount 1 mol % in DOPC vesicles.
[7] abbreviates: antioxidant amount 5 mol % in DOPC vesicles.

As for `O=C(O)CCCC[C@@H](S)CCS` (racemic) [DHLA, dihydrolipoic acid], the relative antioxidant capacity in test [1] (setting [4]) worked out at 1.95 ± 0.03; in test [1] (setting [5]) it was 1.12 ± 0.02. For the same compound, in test [1], the “antioxidant capacity compared with Trolox at the same concentration” value is reported as “double”. The leakage rate constant in test [2] (setting [6]) was 1.43 ± 1.25 ms^−1 · 10^3; in test [2] (setting [7]) it was 0.48 ± 0.05 * ms^−1 · 10^3.

Turning to `O=C(O)CCCCC1CCSS1` (stereo not drawn) [ALA, α-Lipoic acid], the relative antioxidant capacity worked out at 0.61 ± 0.26 in test [1] (setting [4]) and 0.29 ± 0.05 in test [1] (setting [5]). Moreover, the leakage rate constant is listed as 5.19 ± 1.32 * ms^−1 · 10^3 in test [2] (setting [6]) and 3.98 ± 1.69 ms^−1 · 10^3 in test [2] (setting [7]).

Regarding `Cc1c(C)c2c(c(C)c1O)CCC(C)(C(=O)O)O2` (stereo not shown) [Trolox], the relative antioxidant capacity amounted to 0.98 ± 0.28 in test [1] (concentration 10 μM, relative to 50 μM Trolox, DOPC vesicles, 37° C.); 0.80 ± 0.09 in test [1] (setting [4]); 1.00 in test [1] (concentration 50 μM, reference arbitrarily assigned 1.0); 0.80 ± 0.08 in test [1] (setting [5]).

Take “dihydrolipoyl dioleoylglycerol [LDOG—SH]”: the “oxidation protection of DOPC vesicles (C11-Bodipy fluorescence)” value in test [1] (37° C.) is “markedly extended the probe's fluorescent period”. Further, the relative antioxidant capacity stood at 2.46 ± 0.10 in test [1] (setting [4]) and 1.21 ± 0.04 in test [1] (setting [5]). The “antioxidant capacity compared with Trolox at the same concentration” value in test [1] is given as “double”. In addition, the leakage rate constant in test [2] (setting [6]) is reported as 4.90 ± 0.90 * ms^−1 · 10^3; in test [2] (setting [7]), 1.88 ± 0.01 ms^−1 · 10^3.

Consider feruloyl dioleoylglycerol, for which the “antioxidant capacity compared with Trolox” value in test [3] was “slightly less”.

For the compound lipoyl dioleoylglycerol [LDOG—SS—], the “oxidation protection of DOPC vesicles (C11-Bodipy fluorescence)” value in test [1] (37° C.) is on record as “afforded little oxidation protection”. Besides, the values for the relative antioxidant capacity in test [1] (setting [4]) and in test [1] (setting [5]) were 0.09 ± 0.01 and 0.02 ± 0.002, respectively. In addition, the leakage rate constant in test [2] (setting [6]) is on record as 0.43 ± 0.12 * ms^−1 · 10^3; in test [2] (setting [7]) it was 0.31 ± 0.06 * ms^−1 · 10^3.
